Common to all, as to format: binding
Assay [1] has as its target human PCSK9 / human LDLR EGFa domain interaction (Homo sapiens (Human), UniProt Q8NBP7). Nature of the assay: TR-FRET assay of inhibition of the PCSK9-LDLR protein-protein interaction. As to conditions: TR-FRET, 20 nM human PCSK9, 20 nM human LDLR EGFa domain, 2 hours room temperature; read-out: IC50. Put shortly: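 Biotinylated PCSK9 (20 nM) and His-tagged LDLR EGFa domain (20 nM) were incubated 2 h at room temperature with 5 nM Ulight-streptavidin and 5 nM Eu-anti-His in HEPES/NaCl/CaCl2 buffer with 0.01% BSA and 0.01% P20. TR-FRET was read; half-maximal inhibitory concentrations came from 4-parameter dose-response fits.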

The target in assay [2] is T1, PCSK9 (Homo sapiens (Human), UniProt Q8NBP7). Description: PCSK9 Alexa FRET Standard assay (displacement of AlexaFluor647 tagged cyclic peptide Reagent A). Particulars: PCSK9 Alexa FRET Standard assay, 0.5 nM PCSK9, 20 nM AF cyclic peptide Reagent A; read-out: IC50. A digest of the protocol:
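TR-FRET displacement: 0.5 nM biotinylated PCSK9 with 1.25 nM Strep-Eu and 20 nM AlexaFluor-tagged cyclic peptide (final) in 50 mM HEPES pH 7.4, 0.15 M NaCl, 5 mM CaCl2, 0.01% BSA, 0.01% P20, ≥2 h at room temperature. IC50 from sigmoidal fit, converted to Ki via peptide KD; falling Eu counts flagged false positives.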

The target in assay [3] is T1, PCSK9. Description: PCSK9 Alexa FRET Plus assay (displacement of AlexaFluor647 tagged cyclic peptide Reagent B). As to conditions: 0.5 nM PCSK9, 960 nM AF cyclic peptide Reagent B. Put shortly:
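TR-FRET displacement with final 0.5 nM biotinylated PCSK9, 1.25 nM Strep-Eu and 960 nM AlexaFluor-tagged cyclic peptide in HEPES pH 7.4, NaCl, CaCl2, BSA, P20; ≥2 h at room temperature. IC50 from sigmoidal fit, converted to Ki using peptide KD. Falling europium counts flagged false positives.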

Setting [4] is: Alexa FRET Plus, read-out: IC50.

These results are taken from patent publication US11530244B2, “Cyclic polypeptides for PCSK9 inhibition” (priority 2018, dated 2022).

A word on the IC50: it is the midpoint of a concentration-inhibition curve.

Starred links: 1 amine or outer side, 2 acyl side, 3 side chain; linkers in the order of their positions; H or OH if unused. Positions of bridges follow the written chain, without caps; N, C: chain ends. Non-standard residues stand in square brackets, D forms with d. Residues, ends and D or L forms follow the SMILES beside them. ξ: configuration not given here. Phe(3-CH2NH2) = O=C([C@H](Cc1cccc(CN[*:3])c1)N[*:1])[*:2]; X5 = O=C([C@@H]1C[C@H](SCc2ccc(C[*:3])cc2)CN1[*:1])[*:2]; Pro(cis-4-CF3) = O=C(O)[C@@H]1C[C@H](C(F)(F)F)CN1; Trp(5-F) = N[C@@H](Cc1c[nH]c2ccc(F)cc12)C(=O)O; ξPhe(4-COOH) = NC(Cc1ccc(C(=O)O)cc1)C(=O)O; X4 = O=C(CCSCc1cccc(CSCCN[*:1])c1)[*:2]; mXylylene = c1cc(C[*:1])cc(C[*:2])c1; AEF = NCCOc1ccc(C[C@H](N)C(=O)O)cc1; NMeY = CN[C@@H](Cc1ccc(O)cc1)C(=O)O; X8 = Clc1cc(C[*:1])cc(C[*:2])c1; Cha = N[C@@H](CC1CCCCC1)C(=O)O; NMeL = CN[C@@H](CC(C)C)C(=O)O; αMeP = C[C@@]1(C(=O)O)CCCN1; dOrn = NCCC[C@@H](N)C(=O)O; Mpa = O=C(O)CCS

Chain of human PCSK9 / human LDLR EGFa domain interaction (Q8NBP7 153-692): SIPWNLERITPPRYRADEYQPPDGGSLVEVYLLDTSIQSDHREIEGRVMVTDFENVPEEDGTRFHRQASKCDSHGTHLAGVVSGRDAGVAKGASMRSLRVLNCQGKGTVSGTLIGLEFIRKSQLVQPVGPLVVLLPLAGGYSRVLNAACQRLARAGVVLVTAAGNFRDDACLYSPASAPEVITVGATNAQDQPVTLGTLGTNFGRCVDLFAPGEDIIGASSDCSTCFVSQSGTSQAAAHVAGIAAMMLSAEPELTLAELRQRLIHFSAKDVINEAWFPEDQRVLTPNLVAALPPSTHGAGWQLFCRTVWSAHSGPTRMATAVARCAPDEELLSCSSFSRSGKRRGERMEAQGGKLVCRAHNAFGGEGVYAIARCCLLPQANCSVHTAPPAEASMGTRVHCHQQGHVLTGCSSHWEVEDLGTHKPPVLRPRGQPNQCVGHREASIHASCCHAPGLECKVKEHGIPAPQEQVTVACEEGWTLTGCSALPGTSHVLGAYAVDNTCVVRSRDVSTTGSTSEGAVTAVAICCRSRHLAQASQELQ
Chain of human PCSK9 / human LDLR EGFa domain interaction (Q8NBP7 31-152 partner): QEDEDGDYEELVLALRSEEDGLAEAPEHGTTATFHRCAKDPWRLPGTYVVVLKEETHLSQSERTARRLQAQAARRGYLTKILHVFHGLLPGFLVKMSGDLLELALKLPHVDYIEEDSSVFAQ
T1 sequence (Q8NBP7 153-692): as the sequence (Q8NBP7 153-692) above

For the molecule `COc1ccc(C[C@@H]2NC(=O)[C@H](Cc3ccc(OC)cc3)NC(=O)[C@@H](CC(C)C)NC(=O)[C@H]([C@@H](C)OC)NC(=O)CCSCc3cccc(c3)CSC[C@@H](C(N)=O)NC(=O)[C@@H]3CCCN3C(=O)[C@H](Cc3ccc(OC)cc3)NC(=O)[C@H](Cc3ccc(OC)cc3)NC(=O)[C@H](CC(C)C)NC2=O)cc1` [Compound 034] ([Mpa]T(Me)[dL]Y(Me)Y(Me)LY(Me)Y(Me)PC-NH2; linker 1-10 via mXylylene), the IC50 in assay [1] was in the range of 0.1 to 100 nM; on PCSK9 [2], 0.11 to 100 nM; at PCSK9 [3] (setting [4]) it was 0.1 to 100 nM.

As for `COc1ccc(C[C@@H]2NC(=O)[C@@H](CC(C)C)NC(=O)[C@H]([C@@H](C)OC)NC(=O)CCSCc3cccc(c3)CSC[C@@H](C(N)=O)NC(=O)[C@]3(C)CCCN3C(=O)[C@H](Cc3ccc(OC)cc3)NC(=O)[C@H]([C@@H](C)OC)NC(=O)[C@H](CC(C)C)N(C)C(=O)[C@H](Cc3ccc(OC)cc3)NC2=O)cc1` [Compound 035] ([Mpa]T(Me)[dL]Y(Me)Y(Me)[NMeL]T(Me)Y(Me)[αMeP]C-NH2; linker 1-10 via mXylylene), the IC50 in assay [1] fell in the range of 0.1 to 100 nM; on PCSK9 [2], 0.11 to 100 nM; at PCSK9 [3] (setting [4]), 0.1 to 100 nM.

Turning to `COc1ccc(C[C@@H]2NC(=O)[C@H]([C@@H](C)O)NC(=O)[C@@H]3C[C@H](F)CN3C(=O)[C@H](Cc3c[nH]c4ccc(F)cc34)NC(=O)[C@H](Cc3c[nH]c4ccc(F)cc34)NC(=O)[C@@H](C)NC(=O)CNC(=O)CCCCNCc3ccc(cc3)C[C@@H](C(N)=O)NC(=O)[C@]3(C)CCCN3C2=O)cc1` [Compound 130], the IC50 in assay [1] was in the range of 0.1 to 100 nM; on PCSK9 [2], 0.11 to 100 nM; at PCSK9 [3] (IC50, Alexa FRET Plus), 100 to 500 nM.

Regarding `NCCCC[C@@H]1NC(=O)CCCn2cc(nn2)CCC[C@@H](C(N)=O)NC(=O)[C@@H]2CCCN2C(=O)[C@H](Cc2ccc(O)cc2)NC(=O)[C@H](Cc2c[nH]cn2)NC(=O)[C@H](CC(=O)O)NC(=O)[C@H](Cc2c[nH]c3ccc(F)cc23)NC(=O)[C@H](Cc2c[nH]c3ccc(F)cc23)NC(=O)CNC1=O` [Compound 152], the values for the IC50 (in assay [1]; at PCSK9 [2]; on PCSK9 [3] (setting [4])) were 0.1 to 100 nM, 100 to 1000 nM and 500 to 5000 nM, respectively.

With `NCCCC[C@@H]1NC(=O)CCCn2cc(nn2)C[C@@H](C(N)=O)NC(=O)[C@@H]2CCCN2C(=O)[C@H](Cc2ccc(O)cc2)NC(=O)[C@H](Cc2c[nH]cn2)NC(=O)[C@H](CC(=O)O)NC(=O)[C@H](Cc2c[nH]c3ccc(F)cc23)NC(=O)[C@H](Cc2c[nH]c3ccc(F)cc23)NC(=O)CNC1=O` [Compound 184], the IC50 in assay [1] lay in the range of 0.1 to 100 nM; on PCSK9 [2], 0.11 to 100 nM; on PCSK9 [3] (setting [4]) it was 0.1 to 100 nM.

Consider `NCCCC[C@@H]1NC(=O)CCSCc2cccc(c2)CSC[C@@H](C(N)=O)NC(=O)[C@@H]2CCCN2C(=O)[C@H](Cc2ccc(O)cc2)NC(=O)[C@H](Cc2c[nH]cn2)NC(=O)[C@H](CC(=O)O)NC(=O)[C@H](Cc2c[nH]c3ccc(F)cc23)NC(=O)[C@H](CC2CCCCC2)NC(=O)CNC1=O` [Compound 223] ([Mpa]KG[Cha][Trp(5-F)]DHYPC-NH2; linker 1-10 via mXylylene), for which the IC50 in assay [1] was 0.1 to 100 nM; at PCSK9 [2], 0.11 to 100 nM; on PCSK9 [3] (setting [4]) it was 100 to 500 nM.

Take `C[C@H]1NC(=O)[C@H](CCCCN)NC(=O)CCSCc2cccc(c2)CSCCNC(=O)[C@]2(C)CCCN2C(=O)[C@H](Cc2ccc(O)cc2)N(C)C(=O)[C@H](Cc2c[nH]cn2)NC(=O)[C@H](CC(=O)O)NC(=O)[C@H](Cc2c[nH]c3ccc(F)cc23)NC(=O)[C@H](Cc2c[nH]c3ccc(F)cc23)NC1=O` [Compound 277] (cyclo(DH[NMeY][αMeP][X4]K[dA][Trp(5-F)][Trp(5-F)])): the results for the IC50 (in assay [1]; at PCSK9 [2]; at PCSK9 [3] (setting [4])) were 0.1 to 100 nM, 0.11 to 100 nM and 100 to 500 nM, respectively.

Consider `NCCCC[C@@H]1NC(=O)CCSCc2cccc(c2)CSC[C@@H](C(N)=O)NC(=O)[C@@H]2C[C@H](C(F)(F)F)CN2C(=O)[C@H](Cc2ccc(O)cc2)NC(=O)[C@H](Cc2c[nH]cn2)NC(=O)[C@H](CC(=O)O)NC(=O)[C@H](Cc2c[nH]c3ccc(F)cc23)NC(=O)[C@H](Cc2c[nH]c3ccc(F)cc23)NC(=O)CNC1=O` [Compound 296] ([Mpa]KG[Trp(5-F)][Trp(5-F)]DHY[Pro(cis-4-CF3)]C-NH2; linker 1-10 via mXylylene), for which the figures for the IC50 (in assay [1]; at PCSK9 [2]; at PCSK9 [3] (setting [4])) were 0.1 to 100 nM, 0.11 to 100 nM and 0.1 to 100 nM, respectively.

With `CC(=O)N[C@@H]1CCCNC(=O)c2ccc(cc2)CC(C(N)=O)NC(=O)[C@]2(C)CCCN2C(=O)[C@H](Cc2ccc(O)cc2)NC(=O)[C@H](Cc2cnc[nH]2)NC(=O)[C@H](CC(=O)O)NC(=O)[C@H](Cc2c[nH]c3ccc(F)cc23)NC(=O)[C@H](Cc2c[nH]c3ccc(F)cc23)NC(=O)CNC1=O` (stereo partly drawn) [Compound 327] (Ac-[dOrn]G[Trp(5-F)][Trp(5-F)]DHY[αMeP][ξPhe(4-COOH)]-NH2; lactam 1-9), the figures for the IC50 (in assay [1]; at PCSK9 [2]; on PCSK9 [3] (setting [4])) were 0.1 to 100 nM, 0.11 to 100 nM and 100 to 500 nM, respectively.

`NCCCC[C@@H]1NC(=O)CCSCc2ccc(cc2)CS[C@H]2C[C@@H](C(N)=O)N(C2)C(=O)[C@H](Cc2ccc(O)cc2)NC(=O)[C@H](Cc2cnc[nH]2)NC(=O)[C@H](CC(=O)O)NC(=O)[C@H](Cc2c[nH]c3ccc(F)cc23)NC(=O)[C@H](Cc2c[nH]c3ccc(F)cc23)NC(=O)CNC1=O` [Compound 328] ([Mpa]KG[Trp(5-F)][Trp(5-F)]DHY[X5]-NH2; thioether 1-9): the IC50 in assay [1] fell in the range of 0.1 to 100 nM; at PCSK9 [2], 100 to 1000 nM; on PCSK9 [3] (setting [4]), 500 to 5000 nM.

For `COc1ccc(C[C@@H]2NC(=O)[C@H]([C@@H](C)OC)NC(=O)[C@H](CCC(=O)O)NC(=O)[C@H](Cc3c[nH]c4ccc(F)cc34)NC(=O)[C@H](Cc3cccc(CN)c3)NC(=O)[C@@H](C)NC(=O)[C@H](C)NC(=O)CCSCc3cccc(c3)CSCCNC(=O)[C@]3(C)CCCN3C2=O)cc1` [Compound 343] (cyclo(A[dA][Phe(3-CH2NH2)][Trp(5-F)]ET(Me)Y(Me)[αMeP][X4])), the results for the IC50 (in assay [1]; on PCSK9 [2]; at PCSK9 [3] (setting [4])) were 0.1 to 100 nM, 0.11 to 100 nM and 0.1 to 100 nM, respectively.

In the case of `COc1ccc(C[C@@H]2NC(=O)[C@H](Cc3cnc[nH]3)NC(=O)[C@H](CC(=O)O)NC(=O)[C@H](Cc3c[nH]c4ccc(F)cc34)NC(=O)[C@H](Cc3c[nH]c4ccc(F)cc34)NC(=O)[C@@H](C)NC(=O)[C@H](CCCCN)NC(=O)[C@@H](NC(C)=O)CC(=O)NCCOc3ccc(cc3)C[C@@H](C(N)=O)NC(=O)[C@]3(C)CCCN3C2=O)cc1` [Compound 349] (Ac-DK[dA][Trp(5-F)][Trp(5-F)]DHY(Me)[αMeP][AEF]-NH2; lactam 1-10), the IC50 in assay [1] fell in the range of 0.1 to 100 nM; on PCSK9 [2], 0.11 to 100 nM; at PCSK9 [3] (setting [4]) it was 100 to 500 nM.

Take `C[C@@]12CCCN1C(=O)[C@H](Cc1ccc(O)cc1)NC(=O)[C@H](Cc1c[nH]cn1)NC(=O)[C@H](CC(=O)O)NC(=O)[C@H](Cc1c[nH]c3ccc(F)cc13)NC(=O)[C@H](Cc1c[nH]c3ccc(F)cc13)NC(=O)CNC(=O)[C@H](CCCCN)NC(=O)CCSCc1cc(Cl)cc(c1)CSC[C@@H](C(N)=O)NC2=O` [Compound 358] ([Mpa]KG[Trp(5-F)][Trp(5-F)]DHY[αMeP]C-NH2; linker 1-10 via X8): the IC50 in assay [1] was 0.1 to 100 nM; on PCSK9 [2] it was 0.11 to 100 nM; at PCSK9 [3] (setting [4]), 100 to 500 nM.
